Experimental data reported in ChEMBL document CHEMBL3102801, “Synthesis and antiproliferative activity of new derivatives containing the polycyclic system 5,7:7,13-dimethanopyrazolo[3,4-b]pyrazolo[3',4':2,3]azepino[4,5-f]azocine” (Eur J Med Chem, 2014).

Tests used:
Format in all cases: functional
[1] = tested on: HCT-116; experiment: Cell cycle arrest in human HCT116 cells assessed as accumulation of sub-G0-G1 phase at 5 uM after 48 hrs using propidium iodide staining by flow cytometric analysis (reference value: 15.2%)
[2] = tested on: M14; experiment: Growth inhibition of human M14 cells after 48 hrs by sulforhodamine B assay; conditions: M14, 48 h
[3] = tested on: T47D; experiment: Growth inhibition of human T47D cells after 48 hrs by sulforhodamine B assay
[4] = tested on: SK-MEL-28; experiment: Growth inhibition of human SK-MEL-28 cells after 48 hrs by sulforhodamine B assay; conditions: SK-MEL-28, 48 h
[5] = tested on: KM12; experiment: Growth inhibition of human KM12 cells after 48 hrs by sulforhodamine B assay; conditions: KM12, 48 h
[6] = tested on: MCF7; experiment: Growth inhibition of human MCF7 cells after 48 hrs by sulforhodamine B assay; conditions: MCF7, 48 h
[7] = tested on: MDA-MB-231; experiment: Cell cycle arrest in human MDA-MB-231 cells assessed as accumulation of G0-G1 phase at 10 uM after 48 hrs using propidium iodide staining by flow cytometric analysis (reference value: 42.2%)
[8] = tested on: MDA-MB-231; experiment: Cell cycle arrest in human MDA-MB-231 cells assessed as accumulation of sub-G0-G1 phase at 5 uM after 48 hrs using propidium iodide staining by flow cytometric analysis (reference value: 8.4%)
[9] = tested on: MDA-MB-435; experiment: Growth inhibition of human MDA-MB-435 cells after 48 hrs by sulforhodamine B assay; conditions: MDA-MB-435, 48 h

SMILES: C=C1c2c(C)nn(-c3ccc(OC)cc3)c2N(C)C23CC1C1(C)c4c(C)nn(-c5ccc(OC)cc5)c4N(C)C(C)(CC12)C3 (centres undefined)
- Activity [1]: 14.3%
- GI50 [2]: 3.88 µM
- GI50 [3]: 1.81 µM
- GI50 [4]: 5.86 µM
- GI50 [5]: 3.75 µM
- GI50 [6]: 2.69 µM
- Activity [7]: 58.2%
- Activity [8]: 11.5%
- GI50 [9]: 3.4 µM
